One assay relates to BT474. Briefly: Cytotoxicity assay (SRB), BT474. Type of assay: cell-based. In outline:
(§1)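 BT474 (12000 cells/well) was treated for 6 days, whereas HCT-116 (4000), LoVo (6000) and MCF-7 (6000) were treated for 3 days, all in RPMI 1640 containing 5% FBS. Surviving-cell percentage came from SRB dye binding measured at 540 nm.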

For another assay, the target named is T1, cyclin B/CDK1 enzyme (Homo sapiens, UniProt P06493).
T1 construct: purchased New England BioLabs; host or cells: Sf9 insect cells, recombinant baculovirus
The assay is described as follows: CDK1 ELISA kinase assay (phospho-Rb ser 795 detection). Type of assay: biochemical. Particulars: read-out: CDK1 IC50. Summed up: (§2)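 Partially purified Sf9-expressed cyclin D1/CDK4, cyclin E/CDK2 or cyclin B/CDK1 phosphorylated plate-bound GST-Rb C-terminal fragment with 200 μM ATP at 30° C for 1 h.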

In another assay the test system is HCT-116. Briefly: Cytotoxicity assay (SRB), HCT-116. Type of assay: cell-based. Particulars: HCT116 cells, SRB, read-out: In Vitro Cellular Activity IC50 HCT116. Summed up:
as §1

For the next assay, the system named is LoVo. Briefly: Cytotoxicity assay (SRB), LoVo. Format: cell-based. To be noted: LoVo cells, SRB, read-out: In Vitro Cellular Activity IC50 LOVO. Summed up:
as §1

The next assay deals with T2, cyclin E/CDK2 enzyme (Homo sapiens, UniProt P24941).
T2 construct: made in house; host or cells: Sf9 insect cells, recombinant baculovirus
Briefly: CDK2 ELISA kinase assay (phospho-Rb ser 795 detection). To be noted: read-out: CDK2 IC50. Format: biochemical. In outline: as §2

Another assay concerns the target T3, cyclin D1/cdk 4 enzyme (Homo sapiens, UniProt P11802).
T3 construct: made in house; host or cells: Sf9 insect cells, recombinant baculovirus
The assay is described as follows: CDK4 ELISA kinase assay (phospho-Rb ser 795 detection). Format: biochemical. Summed up: as §2

Another assay has as its system MCF-7. The assay is described as follows: Cytotoxicity assay (SRB), MCF-7. Type of assay: cell-based. To be noted: MCF-7 cells, SRB, read-out: In Vitro Cellular Activity IC50 MCF-7. Summed up: as §1
Where [1] appears, read: Homo sapiens, BT-474, 144 h, BT474 cells, SRB, 6 days; read-out: In Vitro Cellular Activity IC50 BT474.
The mark [2] stands for this setting: Homo sapiens, HCT-116, 72 h, three days.
Where [3] appears, read: Homo sapiens, LoVo, 72 h, three days.
[4] abbreviates: In Vitro Enzyme Assays, 200 μM ATP, read-out: CDK4 IC50.
Setting [5] is: Homo sapiens, MCF7, 72 h, three days.

Read-outs that look alike come from different tables or passages of the source. Some results are limits rather than exact numbers.

T1 sequence (P06493 whole entry): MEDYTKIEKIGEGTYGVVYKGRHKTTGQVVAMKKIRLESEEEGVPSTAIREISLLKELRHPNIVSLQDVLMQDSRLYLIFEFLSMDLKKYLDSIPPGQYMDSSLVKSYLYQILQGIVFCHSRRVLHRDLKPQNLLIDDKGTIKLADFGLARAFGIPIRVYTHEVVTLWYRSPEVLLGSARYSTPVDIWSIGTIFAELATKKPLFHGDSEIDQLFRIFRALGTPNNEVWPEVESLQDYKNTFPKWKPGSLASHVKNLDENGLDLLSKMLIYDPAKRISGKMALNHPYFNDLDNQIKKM
T1 sequence (P14635 whole entry partner): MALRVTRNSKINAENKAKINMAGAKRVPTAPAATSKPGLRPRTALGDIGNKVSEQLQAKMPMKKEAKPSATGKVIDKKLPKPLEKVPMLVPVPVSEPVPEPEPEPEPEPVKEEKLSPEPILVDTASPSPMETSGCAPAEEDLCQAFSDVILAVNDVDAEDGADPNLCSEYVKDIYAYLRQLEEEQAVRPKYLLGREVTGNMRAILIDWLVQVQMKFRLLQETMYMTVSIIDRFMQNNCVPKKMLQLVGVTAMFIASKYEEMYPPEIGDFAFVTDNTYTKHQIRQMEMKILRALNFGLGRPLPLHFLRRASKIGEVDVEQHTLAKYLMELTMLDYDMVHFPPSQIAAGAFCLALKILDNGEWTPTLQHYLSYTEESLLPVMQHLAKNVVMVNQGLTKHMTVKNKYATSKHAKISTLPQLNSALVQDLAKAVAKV
T3 sequence (P11802 whole entry, species assumed): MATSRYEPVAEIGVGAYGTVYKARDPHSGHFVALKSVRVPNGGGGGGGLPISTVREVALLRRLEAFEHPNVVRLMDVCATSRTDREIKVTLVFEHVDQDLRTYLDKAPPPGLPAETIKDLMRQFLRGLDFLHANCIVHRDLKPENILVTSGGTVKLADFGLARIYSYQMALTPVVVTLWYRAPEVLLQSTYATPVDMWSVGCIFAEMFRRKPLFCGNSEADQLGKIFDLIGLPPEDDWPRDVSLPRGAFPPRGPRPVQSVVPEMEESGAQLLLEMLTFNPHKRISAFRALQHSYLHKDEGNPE
T3 sequence (P24385 whole entry partner, species assumed): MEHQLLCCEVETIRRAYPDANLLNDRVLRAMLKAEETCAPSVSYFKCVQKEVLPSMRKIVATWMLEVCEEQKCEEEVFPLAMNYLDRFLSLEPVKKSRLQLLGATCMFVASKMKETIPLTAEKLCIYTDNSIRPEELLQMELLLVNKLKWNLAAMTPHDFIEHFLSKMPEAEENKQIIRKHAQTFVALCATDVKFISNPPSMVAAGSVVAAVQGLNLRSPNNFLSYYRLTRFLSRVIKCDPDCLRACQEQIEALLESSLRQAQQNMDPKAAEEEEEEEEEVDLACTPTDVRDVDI

Take `CN1CCN(CCN(C)c2ccc(NC=C3C(=O)NC(=O)c4ccc(Br)cc43)cc2)CC1` (stereo in doubt) [Example 870, (4Z)-6-Bromo-4-{[(4-{methyl[2-(4-methylpiperazin-1-yl)ethyl]amino}phenyl)amino]methylene}isoquinoline-1,3(2H,4H)-dione]: the IC50 in the assay with BT474 (Homo sapiens, BT-474, 144 h, BT474 cells, 6 days, SRB; read-out: In Vitro Cellular Activity IC50 BT474) was 10.2 µM; at cyclin B/CDK1 enzyme (In Vitro Enzyme Assay), above 50 µM; with HCT-116 (Homo sapiens, HCT-116, 72 h, 3 days), 3 µM; in the assay with LoVo (Homo sapiens, LoVo, 72 h, 3 days), 10.5 µM; on cyclin E/CDK2 enzyme (In Vitro Enzyme Assay), above 50 µM; on cyclin D1/cdk 4 enzyme (In Vitro Enzyme Assay, read-out: CDK4 IC50) it was 2.6 µM. Further, the IC50 in the assay on MCF-7 (Homo sapiens, MCF7, 72 h, 3 days) came out at 9.2 µM.
Take `O=C1NC(=O)c2ccc(Br)cc2/C1=C/NCc1cccc(O)c1` [Example 46]: the IC50 is above 50 µM in the assay on BT474 (setting [1]); above 50 µM on cyclin B/CDK1 enzyme (In Vitro Enzyme Assays); 23 µM in the assay with HCT-116 (setting [2]); 23 µM with LoVo (setting [3]); above 50 µM at cyclin E/CDK2 enzyme (In Vitro Enzyme Assays); 0.033 µM on cyclin D1/cdk 4 enzyme (setting [4]). The IC50 in the assay on MCF-7 (setting [5]) is above 50 µM.
In the case of `O=C1NC(=O)c2ccc(-n3cccc3)cc2/C1=C/Nc1ccc(CN2CCCC2)cc1` [Example 72], the 50% inhibitory concentration (IC50) with BT474 (setting [1]) is 4.1 µM; at cyclin B/CDK1 enzyme (In Vitro Enzyme Assays) it was above 50 µM; in the assay on HCT-116 (setting [2]), 3.4 µM; in the assay on LoVo (setting [3]) it was 3.4 µM; at cyclin E/CDK2 enzyme (In Vitro Enzyme Assays), above 50 µM; at cyclin D1/cdk 4 enzyme (setting [4]) it was 0.19 µM. Further, the IC50 with MCF-7 (setting [5]) was 2.6 µM.
For the molecule `O=C1NC(=O)c2ccc(Br)cc2/C1=C/NCc1cc(O)c(O)c(O)c1` [Example 79], the IC50 was 37.7 µM in the assay on BT474 (setting [1]); 42.6 µM on cyclin B/CDK1 enzyme (In Vitro Enzyme Assays); above 50 µM in the assay with HCT-116 (setting [2]); 49.5 µM in the assay on LoVo (setting [3]); 2.2 µM on cyclin E/CDK2 enzyme (In Vitro Enzyme Assays); 0.026 µM at cyclin D1/cdk 4 enzyme (setting [4]). Also, the IC50 in the assay with MCF-7 (setting [5]) is above 50 µM.
As for `COc1ccc(CN/C=C2\C(=O)NC(=O)c3ccc(-c4ccsc4)cc32)cc1O` [Example 88, (4Z)-4-{[(3-Hydroxy-4-methoxybenzyl)amino]methylene}-6-thien-3-ylisoquinoline-1,3(2H,4H)-dione], the IC50 was found to be 6 µM in the assay with BT474 (setting [1]); 23.3 µM at cyclin B/CDK1 enzyme (In Vitro Enzyme Assays); 3.4 µM with HCT-116 (setting [2]); 2.4 µM in the assay with LoVo (setting [3]); 18.3 µM at cyclin E/CDK2 enzyme (In Vitro Enzyme Assays); 0.002 µM at cyclin D1/cdk 4 enzyme (setting [4]). In addition, the IC50 in the assay with MCF-7 (setting [5]) was 9.1 µM.
Turning to `COc1ccc(CN/C=C2\C(=O)NC(=O)c3ccccc32)cc1O` [Example 98, (4Z)-4-{[(3-Hydroxy-4-methoxybenzyl)amino]methylene}isoquinoline-1,3(2H,4H)-dione], the IC50 was 16.8 µM in the assay with BT474 (setting [1]); above 50 µM at cyclin B/CDK1 enzyme (In Vitro Enzyme Assays); 17.9 µM in the assay with HCT-116 (setting [2]); 19.3 µM with LoVo (setting [3]); 7.1 µM on cyclin E/CDK2 enzyme (In Vitro Enzyme Assays); 0.21 µM against cyclin D1/cdk 4 enzyme (CDK4 IC50, In Vitro Enzyme Assays, 200 μM ATP). Moreover, the IC50 in the assay on MCF-7 (setting [5]) amounted to 24.1 µM.
Take `O=C1NC(=O)c2ccc(-c3ccsc3)cc2/C1=C/Nc1ccc(CN2CCCCC2)cc1` [Example 104, (4Z)-4-({[4-(Piperidin-1-ylmethyl)phenyl]amino}methylene)-6-thien-3-ylisoquinoline-1,3(2H,4H)-dione]: the IC50 in the assay with BT474 (setting [1]) was 3 µM; at cyclin B/CDK1 enzyme (In Vitro Enzyme Assays) it was above 50 µM; in the assay with HCT-116 (setting [2]) it was 1 µM; in the assay with LoVo (setting [3]), 1.3 µM; on cyclin E/CDK2 enzyme (In Vitro Enzyme Assays), above 50 µM; at cyclin D1/cdk 4 enzyme (setting [4]), 0.05 µM. In addition, the IC50 with MCF-7 (setting [5]) worked out at 3.4 µM.
Turning to `CN1CCN(c2ccc(N/C=C3\C(=O)NC(=O)c4ccc(-c5ccsc5)cc43)cc2)CC1` [Example 108, (4Z)-4-({[4-(4-Methylpiperazin-1-yl)phenyl]amino}methylene)-6-thien-3-ylisoquinoline-1,3(2H,4H)-dione], the IC50 with BT474 (BT474 cells, SRB, 6 days; read-out: In Vitro Cellular Activity IC50 BT474) is 2.6 µM; on cyclin B/CDK1 enzyme (In Vitro Enzyme Assays) it was above 50 µM; in the assay on HCT-116 (three days), 1.5 µM; in the assay on LoVo (three days), 2.2 µM; at cyclin E/CDK2 enzyme (In Vitro Enzyme Assays), above 50 µM; at cyclin D1/cdk 4 enzyme (setting [4]) it was 0.12 µM. Also, the IC50 with MCF-7 (three days) was 2.5 µM.

Source of the values: patent publication US7713994B2 (Wyeth LLC, priority 2005, dated 2010).
